Where two headings read alike, the source gives them in different places. Positions of bridges follow the written chain, without caps; N, C: chain ends. Non-standard residues stand in square brackets, D forms with d. Residues, ends and D or L forms follow the SMILES beside them. Phe(4-COOH) = N[C@@H](Cc1ccc(C(=O)O)cc1)C(=O)O; 2Pal = N[C@@H](Cc1ccccn1)C(=O)O; Cha = N[C@@H](CC1CCCCC1)C(=O)O
What was measured:
Test in all cases: cell-based
[1] = target: hNav1.3 (Homo sapiens, UniProt Q9NY46); conditions: IonWorks Quattro, […], read-out: IWQ Use Nav1.3
hNav1.3, sequence (Q9NY46 whole entry, looked up): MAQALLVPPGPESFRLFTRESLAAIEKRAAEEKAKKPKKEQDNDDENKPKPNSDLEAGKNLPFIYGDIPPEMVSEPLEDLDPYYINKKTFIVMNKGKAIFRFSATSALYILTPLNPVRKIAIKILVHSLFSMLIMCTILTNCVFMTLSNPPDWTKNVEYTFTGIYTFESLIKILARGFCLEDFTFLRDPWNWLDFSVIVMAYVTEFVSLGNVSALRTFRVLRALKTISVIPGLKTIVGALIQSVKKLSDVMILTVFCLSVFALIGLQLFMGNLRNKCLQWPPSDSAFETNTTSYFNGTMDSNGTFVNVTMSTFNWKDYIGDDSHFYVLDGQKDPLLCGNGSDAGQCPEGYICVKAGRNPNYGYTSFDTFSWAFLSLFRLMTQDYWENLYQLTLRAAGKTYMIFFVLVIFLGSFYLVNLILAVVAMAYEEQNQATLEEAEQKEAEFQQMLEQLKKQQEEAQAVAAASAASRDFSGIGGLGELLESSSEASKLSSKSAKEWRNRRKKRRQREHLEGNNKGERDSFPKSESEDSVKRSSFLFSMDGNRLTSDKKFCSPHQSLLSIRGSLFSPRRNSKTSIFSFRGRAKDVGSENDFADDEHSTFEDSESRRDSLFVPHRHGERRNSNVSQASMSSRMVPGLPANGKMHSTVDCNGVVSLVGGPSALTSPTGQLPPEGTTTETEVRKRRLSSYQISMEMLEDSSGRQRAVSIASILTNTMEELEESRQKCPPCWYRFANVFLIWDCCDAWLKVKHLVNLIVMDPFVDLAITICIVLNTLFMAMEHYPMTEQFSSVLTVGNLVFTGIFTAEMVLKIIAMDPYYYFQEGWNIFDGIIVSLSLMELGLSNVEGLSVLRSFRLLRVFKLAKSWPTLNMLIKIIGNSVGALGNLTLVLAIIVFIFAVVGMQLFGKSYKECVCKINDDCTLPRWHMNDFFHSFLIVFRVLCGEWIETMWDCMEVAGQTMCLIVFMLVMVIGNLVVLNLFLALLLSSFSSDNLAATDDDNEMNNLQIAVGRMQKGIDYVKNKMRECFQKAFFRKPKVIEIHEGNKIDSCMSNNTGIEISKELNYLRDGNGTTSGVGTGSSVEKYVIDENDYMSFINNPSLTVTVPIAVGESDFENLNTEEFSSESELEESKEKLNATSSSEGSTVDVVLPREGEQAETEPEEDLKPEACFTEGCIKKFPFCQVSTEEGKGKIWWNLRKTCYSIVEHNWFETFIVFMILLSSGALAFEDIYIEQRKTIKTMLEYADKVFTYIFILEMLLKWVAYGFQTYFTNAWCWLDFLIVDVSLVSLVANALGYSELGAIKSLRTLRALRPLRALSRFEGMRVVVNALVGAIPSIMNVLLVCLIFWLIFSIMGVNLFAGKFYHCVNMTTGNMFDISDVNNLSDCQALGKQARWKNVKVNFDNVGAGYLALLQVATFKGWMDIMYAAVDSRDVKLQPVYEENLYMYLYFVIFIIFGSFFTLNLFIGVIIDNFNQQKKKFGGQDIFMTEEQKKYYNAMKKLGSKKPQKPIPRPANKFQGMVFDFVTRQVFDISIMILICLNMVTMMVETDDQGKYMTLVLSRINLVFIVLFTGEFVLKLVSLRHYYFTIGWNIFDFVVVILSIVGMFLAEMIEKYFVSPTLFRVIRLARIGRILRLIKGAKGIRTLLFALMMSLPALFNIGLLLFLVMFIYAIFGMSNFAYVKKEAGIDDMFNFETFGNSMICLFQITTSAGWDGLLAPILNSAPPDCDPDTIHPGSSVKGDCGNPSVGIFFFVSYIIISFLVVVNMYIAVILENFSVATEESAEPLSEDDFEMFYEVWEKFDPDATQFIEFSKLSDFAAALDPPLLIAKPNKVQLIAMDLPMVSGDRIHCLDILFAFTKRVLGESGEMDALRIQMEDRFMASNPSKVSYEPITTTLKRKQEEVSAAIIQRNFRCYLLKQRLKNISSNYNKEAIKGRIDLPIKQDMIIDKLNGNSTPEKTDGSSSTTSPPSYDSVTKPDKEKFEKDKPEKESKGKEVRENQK

[2] = target: hNav1.7 (Homo sapiens, UniProt Q15858); type: cell-based; conditions: IonWorks Quattro, […], read-out: IWQ Use Nav1.7
[3] = target: hNav1.5 (Homo sapiens, UniProt Q14524)
hNav1.5, sequence (Q14524 whole entry, looked up): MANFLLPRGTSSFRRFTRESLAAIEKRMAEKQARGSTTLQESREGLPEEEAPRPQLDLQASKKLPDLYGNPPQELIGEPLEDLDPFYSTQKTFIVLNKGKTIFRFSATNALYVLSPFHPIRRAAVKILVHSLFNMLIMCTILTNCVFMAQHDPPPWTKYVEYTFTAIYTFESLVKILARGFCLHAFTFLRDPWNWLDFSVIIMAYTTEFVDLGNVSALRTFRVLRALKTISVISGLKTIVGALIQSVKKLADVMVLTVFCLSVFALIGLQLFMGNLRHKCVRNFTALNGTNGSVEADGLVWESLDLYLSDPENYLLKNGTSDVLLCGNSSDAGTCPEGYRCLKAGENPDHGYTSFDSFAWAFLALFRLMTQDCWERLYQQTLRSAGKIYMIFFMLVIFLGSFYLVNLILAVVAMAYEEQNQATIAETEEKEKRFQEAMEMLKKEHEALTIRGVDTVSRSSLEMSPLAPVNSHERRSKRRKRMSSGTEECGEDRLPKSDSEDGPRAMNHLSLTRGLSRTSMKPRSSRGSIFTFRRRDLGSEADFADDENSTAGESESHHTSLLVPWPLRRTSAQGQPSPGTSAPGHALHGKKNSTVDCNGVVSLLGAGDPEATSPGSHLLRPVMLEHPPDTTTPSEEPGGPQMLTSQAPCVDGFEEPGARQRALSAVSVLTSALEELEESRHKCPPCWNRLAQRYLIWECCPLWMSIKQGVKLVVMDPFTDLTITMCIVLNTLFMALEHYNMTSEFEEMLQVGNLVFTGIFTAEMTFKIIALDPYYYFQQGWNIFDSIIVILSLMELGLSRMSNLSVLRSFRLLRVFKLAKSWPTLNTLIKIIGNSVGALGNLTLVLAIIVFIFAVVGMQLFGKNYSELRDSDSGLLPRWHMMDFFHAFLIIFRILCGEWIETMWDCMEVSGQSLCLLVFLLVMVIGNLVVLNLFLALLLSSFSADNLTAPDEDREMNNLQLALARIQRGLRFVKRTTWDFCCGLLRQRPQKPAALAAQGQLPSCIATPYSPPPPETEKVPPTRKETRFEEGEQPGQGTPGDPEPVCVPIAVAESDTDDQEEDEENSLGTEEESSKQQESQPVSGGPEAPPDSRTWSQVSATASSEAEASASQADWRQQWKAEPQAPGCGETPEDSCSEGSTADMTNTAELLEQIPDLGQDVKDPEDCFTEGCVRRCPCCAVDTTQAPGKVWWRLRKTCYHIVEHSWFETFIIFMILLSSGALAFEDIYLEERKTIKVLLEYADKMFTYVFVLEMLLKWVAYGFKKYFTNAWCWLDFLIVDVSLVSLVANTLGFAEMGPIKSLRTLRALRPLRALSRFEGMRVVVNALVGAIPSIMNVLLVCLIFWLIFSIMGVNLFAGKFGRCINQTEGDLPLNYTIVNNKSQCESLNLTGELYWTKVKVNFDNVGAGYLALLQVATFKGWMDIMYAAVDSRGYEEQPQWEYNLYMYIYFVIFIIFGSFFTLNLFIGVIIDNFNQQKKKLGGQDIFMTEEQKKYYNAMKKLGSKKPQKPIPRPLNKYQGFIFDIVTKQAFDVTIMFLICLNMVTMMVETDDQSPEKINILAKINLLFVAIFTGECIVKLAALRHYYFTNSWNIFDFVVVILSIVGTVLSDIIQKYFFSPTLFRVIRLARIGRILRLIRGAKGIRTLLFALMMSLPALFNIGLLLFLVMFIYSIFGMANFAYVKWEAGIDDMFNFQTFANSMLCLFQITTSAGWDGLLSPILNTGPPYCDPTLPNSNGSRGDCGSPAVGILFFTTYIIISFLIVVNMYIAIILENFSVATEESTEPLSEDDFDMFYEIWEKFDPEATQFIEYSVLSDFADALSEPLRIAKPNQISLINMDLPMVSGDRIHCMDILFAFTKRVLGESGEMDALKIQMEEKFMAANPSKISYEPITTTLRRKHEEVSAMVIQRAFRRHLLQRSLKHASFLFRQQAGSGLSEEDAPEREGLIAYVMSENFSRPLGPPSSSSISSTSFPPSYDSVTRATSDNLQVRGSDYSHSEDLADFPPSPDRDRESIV

[4] = Table 26, IonWorks Quattro, use, […], read-out: IWQ Use Nav1.5

Structure (SMILES) | IC50 ([1]; Table 26, use) | IC50 ([2]; Table 26, use) | IC50 [3, 4] | IC50 ([3]; IWQ Use Nav1.5 (μM)) | IC50 ([1]; use-dependent) | IC50 ([2]; use-dependent) | IC50 ([3]; IonWorks Quattro, use-dependent, […], read-out: IWQ Use Nav1.5)
CC[C@H](C)[C@@H]1NC(=O)[C@@H]2CSSC[C@@H]3NC(=O)[C@H](C(C)C)NC(=O)[C@H](CC(C)C)NC(=O)[C@H](CC(N)=O)NC(=O)[C@@H]4CCCN4C(=O)[C@H](CCCNC(=N)N)NC(=O)[C@H](CSSC[C@H](NC(=O)[C@@H](N)CC(=O)O)C(=O)N[C@@H](CC(C)C)C(=O)NCC(=O)N[C@@H](Cc4ccccc4)C(=O)N[C@@H](CCSC)C(=O)N[C@@H](CCCNC(=N)N)C(=O)N[C@@H](CCCCN)C(=O)N2)NC(=O)[C@H](CSSC[C@@H](C(=O)N[C@@H](CCCCN)C(=O)N[C@@H](Cc2ccc(O)cc2)C(=O)N[C@@H](CO)C(=O)N[C@@H](Cc2ccccc2)C(N)=O)NC(=O)[C@H](Cc2c[nH]c4ccccc24)NC(=O)[C@H](CCCCN)NC(=O)[C@H](Cc2c[nH]cn2)NC(=O)[C@H]([C@@H](C)O)NC(=O)[C@H](CCCNC(=N)N)NC(=O)[C@H](CO)NC3=O)NC(=O)[C@H](CCCCN)NC(=O)[C@H](CC(=O)O)NC(=O)[C@H](CC(N)=O)NC(=O)[C@H](CC(=O)O)NC(=O)[C@@H]2CCCN2C1=O [compound 397] (H-DCLGFMRKCIPDNDKCCRPNLVCSRTHKWCKYSF-NH2; disulfide 2-17, 9-23, 16-30) | 60 nM | 40 nM | 6.28 µM | – | – | – | –
CC[C@H](C)[C@@H]1NC(=O)[C@@H]2CSSC[C@@H]3NC(=O)[C@H](C(C)C)NC(=O)[C@H](CC(C)C)NC(=O)[C@H](CC(N)=O)NC(=O)[C@@H]4CCCN4C(=O)[C@H](CCCNC(=N)N)NC(=O)[C@H](CSSC[C@H](NC(=O)[C@@H](N)CC(=O)O)C(=O)N[C@@H](CC(C)C)C(=O)NCC(=O)N[C@@H](Cc4ccccc4)C(=O)N[C@@H](CCSC)C(=O)N[C@@H](CCCNC(=N)N)C(=O)N[C@@H](CCCCN)C(=O)N2)NC(=O)[C@H](CSSC[C@@H](C(=O)N[C@@H](CCCCN)C(=O)N[C@@H](Cc2ccc(O)cc2)C(=O)N2CCC[C@H]2C(=O)N[C@@H](Cc2ccccc2)C(N)=O)NC(=O)[C@H](Cc2c[nH]c4ccccc24)NC(=O)[C@H](CCCCN)NC(=O)[C@H](Cc2c[nH]cn2)NC(=O)[C@H]([C@@H](C)O)NC(=O)[C@H](CCCNC(=N)N)NC(=O)[C@H](CO)NC3=O)NC(=O)[C@H](CCCCN)NC(=O)[C@H](CC(=O)O)NC(=O)[C@H](CC(N)=O)NC(=O)[C@H](CC(=O)O)NC(=O)[C@@H]2CCCN2C1=O [compound 398] (H-DCLGFMRKCIPDNDKCCRPNLVCSRTHKWCKYPF-NH2; disulfide 2-17, 9-23, 16-30) | 3340 nM | 5190 nM | 6.93 µM | – | – | – | –
CC[C@H](C)[C@@H]1NC(=O)[C@@H]2CSSC[C@@H]3NC(=O)[C@H](C(C)C)NC(=O)[C@H](CC(C)C)NC(=O)[C@H](CC(N)=O)NC(=O)[C@@H]4CCCN4C(=O)[C@H](CCCNC(=N)N)NC(=O)[C@H](CSSC[C@H](NC(=O)[C@@H](N)CC(=O)O)C(=O)N[C@@H](CC(C)C)C(=O)NCC(=O)N[C@@H](Cc4ccccc4)C(=O)N[C@@H](CCSC)C(=O)N[C@@H](CCCNC(=N)N)C(=O)N[C@@H](CCCCN)C(=O)N2)NC(=O)[C@H](CSSC[C@@H](C(=O)N[C@@H](CCCCN)C(=O)N[C@@H](Cc2ccc(O)cc2)C(=O)N[C@@H](Cc2ccc(O)cc2)C(=O)N[C@@H](Cc2ccccc2)C(N)=O)NC(=O)[C@H](Cc2c[nH]c4ccccc24)NC(=O)[C@H](CCCCN)NC(=O)[C@H](Cc2c[nH]cn2)NC(=O)[C@H]([C@@H](C)O)NC(=O)[C@H](CCCNC(=N)N)NC(=O)[C@H](CO)NC3=O)NC(=O)[C@H](CCCCN)NC(=O)[C@H](CC(=O)O)NC(=O)[C@H](CC(N)=O)NC(=O)[C@H](CC(=O)O)NC(=O)[C@@H]2CCCN2C1=O [compound 399] (H-DCLGFMRKCIPDNDKCCRPNLVCSRTHKWCKYYF-NH2; disulfide 2-17, 9-23, 16-30) | 30 nM | 70 nM | > 5 µM | – | – | – | –
CC[C@H](C)[C@@H]1NC(=O)[C@@H]2CSSC[C@@H]3NC(=O)[C@H](C(C)C)NC(=O)[C@H](CC(C)C)NC(=O)[C@H](CC(N)=O)NC(=O)[C@@H]4CCCN4C(=O)[C@H](CCCNC(=N)N)NC(=O)[C@H](CSSC[C@H](NC(=O)[C@@H](N)CC(=O)O)C(=O)N[C@@H](CC(C)C)C(=O)NCC(=O)N[C@@H](Cc4ccccc4)C(=O)N[C@@H](CCSC)C(=O)N[C@@H](CCCNC(=N)N)C(=O)N[C@@H](CCCCN)C(=O)N2)NC(=O)[C@H](CSSC[C@@H](C(=O)N[C@@H](CCCCN)C(=O)N[C@@H](Cc2ccc(O)cc2)C(=O)N[C@@H](CC(C)C)C(=O)N[C@@H](Cc2ccccc2)C(N)=O)NC(=O)[C@H](Cc2c[nH]c4ccccc24)NC(=O)[C@H](CCCCN)NC(=O)[C@H](Cc2c[nH]cn2)NC(=O)[C@H]([C@@H](C)O)NC(=O)[C@H](CCCNC(=N)N)NC(=O)[C@H](CO)NC3=O)NC(=O)[C@H](CCCCN)NC(=O)[C@H](CC(=O)O)NC(=O)[C@H](CC(N)=O)NC(=O)[C@H](CC(=O)O)NC(=O)[C@@H]2CCCN2C1=O [compound 400] (H-DCLGFMRKCIPDNDKCCRPNLVCSRTHKWCKYLF-NH2; disulfide 2-17, 9-23, 16-30) | 70 nM | 130 nM | – | > 5 µM | – | – | –
CC[C@H](C)[C@@H]1NC(=O)[C@@H]2CSSC[C@@H]3NC(=O)[C@H](C(C)C)NC(=O)[C@H](CC(C)C)NC(=O)[C@H](CC(N)=O)NC(=O)[C@@H]4CCCN4C(=O)[C@H](CCCNC(=N)N)NC(=O)[C@H](CSSC[C@H](NC(=O)[C@@H](N)CC(=O)O)C(=O)N[C@@H](CC(C)C)C(=O)NCC(=O)N[C@@H](Cc4ccccc4)C(=O)N[C@@H](CCSC)C(=O)N[C@@H](CCCNC(=N)N)C(=O)N[C@@H](CCCCN)C(=O)N2)NC(=O)[C@H](CSSC[C@@H](C(=O)N[C@@H](CCCCN)C(=O)N[C@@H](Cc2ccc(O)cc2)C(=O)NCC(=O)N[C@@H](Cc2ccccc2)C(N)=O)NC(=O)[C@H](Cc2c[nH]c4ccccc24)NC(=O)[C@H](CCCCN)NC(=O)[C@H](Cc2c[nH]cn2)NC(=O)[C@H]([C@@H](C)O)NC(=O)[C@H](CCCNC(=N)N)NC(=O)[C@H](CO)NC3=O)NC(=O)[C@H](CCCCN)NC(=O)[C@H](CC(=O)O)NC(=O)[C@H](CC(N)=O)NC(=O)[C@H](CC(=O)O)NC(=O)[C@@H]2CCCN2C1=O [compound 401] (H-DCLGFMRKCIPDNDKCCRPNLVCSRTHKWCKYGF-NH2; disulfide 2-17, 9-23, 16-30) | 40 nM | 290 nM | – | > 5 µM | – | – | –
CC[C@H](C)[C@@H]1NC(=O)[C@@H]2CSSC[C@@H]3NC(=O)[C@H](C(C)C)NC(=O)[C@H](CC(C)C)NC(=O)[C@H](CC(N)=O)NC(=O)[C@@H]4CCCN4C(=O)[C@H](CCCNC(=N)N)NC(=O)[C@H](CSSC[C@H](NC(=O)[C@@H](N)CC(=O)O)C(=O)N[C@@H](CC(C)C)C(=O)NCC(=O)N[C@@H](Cc4ccccc4)C(=O)N[C@@H](CCSC)C(=O)N[C@@H](CCCNC(=N)N)C(=O)N[C@@H](CCCCN)C(=O)N2)NC(=O)[C@H](CSSC[C@@H](C(=O)N[C@@H](CCCCN)C(=O)N[C@@H](Cc2ccc(O)cc2)C(=O)N[C@@H](Cc2ccccn2)C(=O)N[C@@H](Cc2ccccc2)C(N)=O)NC(=O)[C@H](Cc2c[nH]c4ccccc24)NC(=O)[C@H](CCCCN)NC(=O)[C@H](Cc2c[nH]cn2)NC(=O)[C@H]([C@@H](C)O)NC(=O)[C@H](CCCNC(=N)N)NC(=O)[C@H](CO)NC3=O)NC(=O)[C@H](CCCCN)NC(=O)[C@H](CC(=O)O)NC(=O)[C@H](CC(N)=O)NC(=O)[C@H](CC(=O)O)NC(=O)[C@@H]2CCCN2C1=O [compound 402] (H-DCLGFMRKCIPDNDKCCRPNLVCSRTHKWCKY[2Pal]F-NH2; disulfide 2-17, 9-23, 16-30) | 160 nM | 120 nM | 8.36 µM | – | – | – | –
CC[C@H](C)[C@@H]1NC(=O)[C@@H]2CSSC[C@@H]3NC(=O)[C@H](C(C)C)NC(=O)[C@H](CC(C)C)NC(=O)[C@H](CC(N)=O)NC(=O)[C@@H]4CCCN4C(=O)[C@H](CCCNC(=N)N)NC(=O)[C@H](CSSC[C@H](NC(=O)[C@@H](N)CC(=O)O)C(=O)N[C@@H](CC(C)C)C(=O)NCC(=O)N[C@@H](Cc4ccccc4)C(=O)N[C@@H](CCSC)C(=O)N[C@@H](CCCNC(=N)N)C(=O)N[C@@H](CCCCN)C(=O)N2)NC(=O)[C@H](CSSC[C@@H](C(=O)N[C@@H](CCCCN)C(=O)N[C@@H](Cc2ccc(O)cc2)C(=O)N[C@@H](Cc2ccc(C(=O)O)cc2)C(=O)N[C@@H](Cc2ccccc2)C(N)=O)NC(=O)[C@H](Cc2c[nH]c4ccccc24)NC(=O)[C@H](CCCCN)NC(=O)[C@H](Cc2c[nH]cn2)NC(=O)[C@H]([C@@H](C)O)NC(=O)[C@H](CCCNC(=N)N)NC(=O)[C@H](CO)NC3=O)NC(=O)[C@H](CCCCN)NC(=O)[C@H](CC(=O)O)NC(=O)[C@H](CC(N)=O)NC(=O)[C@H](CC(=O)O)NC(=O)[C@@H]2CCCN2C1=O [compound 403] (H-DCLGFMRKCIPDNDKCCRPNLVCSRTHKWCKY[Phe(4-COOH)]F-NH2; disulfide 2-17, 9-23, 16-30) | 310 nM | 160 nM | 9.06 µM | – | – | – | –
CC[C@H](C)[C@@H]1NC(=O)[C@@H]2CSSC[C@@H]3NC(=O)[C@H](C(C)C)NC(=O)[C@H](CC(C)C)NC(=O)[C@H](CC(N)=O)NC(=O)[C@@H]4CCCN4C(=O)[C@H](CCCNC(=N)N)NC(=O)[C@H](CSSC[C@H](NC(=O)[C@@H](N)CC(=O)O)C(=O)N[C@@H](CC(C)C)C(=O)NCC(=O)N[C@@H](Cc4ccccc4)C(=O)N[C@@H](CCSC)C(=O)N[C@@H](CCCNC(=N)N)C(=O)N[C@@H](CCCCN)C(=O)N2)NC(=O)[C@H](CSSC[C@@H](C(=O)N[C@@H](CCCCN)C(=O)N[C@@H](Cc2ccc(O)cc2)C(=O)N[C@H](C(=O)N[C@@H](CC2CCCCC2)C(N)=O)C(C)C)NC(=O)[C@H](Cc2c[nH]c4ccccc24)NC(=O)[C@H](CCCCN)NC(=O)[C@H](Cc2c[nH]cn2)NC(=O)[C@H]([C@@H](C)O)NC(=O)[C@H](CCCNC(=N)N)NC(=O)[C@H](CO)NC3=O)NC(=O)[C@H](CCCCN)NC(=O)[C@H](CC(=O)O)NC(=O)[C@H](CC(N)=O)NC(=O)[C@H](CC(=O)O)NC(=O)[C@@H]2CCCN2C1=O [compound 405] (H-DCLGFMRKCIPDNDKCCRPNLVCSRTHKWCKYV[Cha]-NH2; disulfide 2-17, 9-23, 16-30) | – | – | – | – | 10 nM | 20 nM | 5.53 µM

From patent US9340590B2 (priority 2011, dated 2016)
